Test results taken from US20240270821A1, “GIP/GLP1/GCG TRI-RECEPTOR AGONISTS AND USES THEREOF” (priority 2023, published 2024).
Read-outs that look alike come from different tables or passages of the source. Starred links: 1 amine or outer side, 2 acyl side, 3 side chain; linkers in the order of their positions; H or OH if unused. Non-standard residues stand in square brackets, D forms with d. Groups on a side chain read outwards from the residue. *: point of attachment. C18 diacid = O=C(O)CCCCCCCCCCCCCCCCC(=O)*; αMePhe(2-F) = C[C@](N)(Cc1ccccc1F)C(=O)O; γGlu = O=C(O)[C@H](CCC(=O)[*:2])N[*:1]; αMe4Pal = C[C@](N)(Cc1ccncc1)C(=O)O; αMeY = C[C@](N)(Cc1ccc(O)cc1)C(=O)O; 4Pal = N[C@@H](Cc1ccncc1)C(=O)O; αMeL = CC(C)C[C@](C)(N)C(=O)O; αMeS = C[C@](N)(CO)C(=O)O; Orn = NCCC[C@H](N)C(=O)O; AEEA = NCCOCCOCC(=O)O; Aib = CC(C)(N)C(=O)O

Tests used:
Type in all cases: cell-based
[1] = biological target: T1, hGIPR (Homo sapiens, UniProt P48546); assay: Functional cAMP activity in the presence of 1% HSA; conditions: read-out: cAMP Rel EC50, hGIPR
T1 sequence (P48546 22-466): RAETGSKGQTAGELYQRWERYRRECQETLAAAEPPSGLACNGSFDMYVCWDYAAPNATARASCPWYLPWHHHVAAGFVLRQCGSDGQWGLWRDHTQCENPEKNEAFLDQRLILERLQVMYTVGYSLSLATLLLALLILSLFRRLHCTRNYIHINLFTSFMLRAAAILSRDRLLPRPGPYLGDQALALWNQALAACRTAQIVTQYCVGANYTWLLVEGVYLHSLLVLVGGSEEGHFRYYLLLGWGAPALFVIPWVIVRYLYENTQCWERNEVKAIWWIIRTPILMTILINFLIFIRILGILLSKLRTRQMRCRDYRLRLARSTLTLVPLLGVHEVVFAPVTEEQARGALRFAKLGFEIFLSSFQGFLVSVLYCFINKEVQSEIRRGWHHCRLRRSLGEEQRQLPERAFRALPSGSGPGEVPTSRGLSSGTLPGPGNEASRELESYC

[2] = biological target: T2, hGLP-1R (Homo sapiens, UniProt P43220); assay: Functional cAMP activation in the presence of 0.1% casein (no HSA); conditions: read-out: Relative cAMP EC50, hGLP-1R;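 note: intracellular cAMP rise after 30 min at 37 °C read by HTRF, normalized between buffer only (0%) and maximal control ligand (100%), four-parameter variable-slope fit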
[3] = biological target: T1, hGIPR; assay: as above; conditions: read-out: Relative cAMP EC50, hGIPR
[4] = biological target: human GcgR (Homo sapiens, UniProt P47871); assay: Functional cAMP activity in the presence of 1% HSA; conditions: read-out: cAMP Rel EC50, hGcgR
[5] = biological target: hGcgR (Homo sapiens, UniProt P47871); assay: Functional cAMP activation in the presence of 0.1% casein (no HSA); conditions: read-out: Relative cAMP EC50, hGcgR;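 note: intracellular cAMP rise after 30 min at 37 °C, read by HTRF against a cAMP standard curve, scaled from buffer only (0%) to maximal control ligand response (100%)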
[6] = biological target: T2, hGLP-1R; assay: Functional cAMP activity in the presence of 1% HSA; conditions: read-out: cAMP Rel EC50, hGLP-1R
[7] = 0.1% casein, no HSA, geometric mean
[8] = in the presence of 0.1% casein (no HSA), geometric mean
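Throughout, for Relative cAMP EC50, hGIPR: intracellular cAMP rise after 30 min at 37 °C read by HTRF against a standard curve, scaled between buffer alone (0%) and top control ligand concentration (100%), four-parameter fit.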

T2 sequence (P43220 24-463): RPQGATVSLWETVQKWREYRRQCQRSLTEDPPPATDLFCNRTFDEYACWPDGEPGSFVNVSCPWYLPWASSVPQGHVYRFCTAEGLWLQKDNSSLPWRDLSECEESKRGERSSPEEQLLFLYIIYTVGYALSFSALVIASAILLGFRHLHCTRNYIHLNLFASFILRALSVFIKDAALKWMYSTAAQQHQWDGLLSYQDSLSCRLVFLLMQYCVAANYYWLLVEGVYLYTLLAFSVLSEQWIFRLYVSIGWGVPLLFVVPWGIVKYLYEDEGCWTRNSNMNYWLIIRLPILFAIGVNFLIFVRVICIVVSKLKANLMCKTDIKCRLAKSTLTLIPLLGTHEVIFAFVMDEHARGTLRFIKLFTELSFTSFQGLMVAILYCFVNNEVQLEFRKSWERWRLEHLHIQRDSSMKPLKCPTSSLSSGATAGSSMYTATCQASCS
human GcgR, sequence (P47871 26-477): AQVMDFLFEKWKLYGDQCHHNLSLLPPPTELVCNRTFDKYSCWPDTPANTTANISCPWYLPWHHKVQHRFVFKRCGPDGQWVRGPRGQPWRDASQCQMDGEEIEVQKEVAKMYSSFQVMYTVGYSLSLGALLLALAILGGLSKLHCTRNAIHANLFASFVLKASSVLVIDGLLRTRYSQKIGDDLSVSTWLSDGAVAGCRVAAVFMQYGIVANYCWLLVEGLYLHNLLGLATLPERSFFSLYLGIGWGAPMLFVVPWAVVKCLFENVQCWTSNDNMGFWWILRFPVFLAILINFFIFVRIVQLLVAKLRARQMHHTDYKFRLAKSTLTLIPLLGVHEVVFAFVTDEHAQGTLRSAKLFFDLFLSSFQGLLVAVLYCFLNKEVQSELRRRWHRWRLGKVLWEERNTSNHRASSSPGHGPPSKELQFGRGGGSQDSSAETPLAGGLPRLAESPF
hGcgR, sequence (P47871 26-477): as above

Substance	EC50 [1] [nM]	EC50 [2] [nM]	EC50 [3] [nM]	EC50 [4] [nM]	EC50 [5] [nM]	EC50 [6] [nM]	EC50 [2, 7] [nM]	EC50 [3, 7] [nM]	EC50 [5, 7] [nM]	EC50 [2, 8] [nM]	EC50 [3, 8] [nM]	EC50 [5, 8] [nM]
H-Y[Aib]QGT[αMePhe(2-F)]TSD[4Pal][αMeS]I[αMeL]LD[Orn]K([AEEA-γGlu-C18 diacid])AQ[Aib]NFIEYLIEGGPSSGEPPPEEG-NH2 [Example 482]	1.58	0.177	0.0139	325	1.41	14.9	–	–	–	–	–	–
H-Y[Aib]QGT[αMePhe(2-F)]TSD[4Pal][αMeS]I[αMeL]LD[Orn]K([AEEA-γGlu-C18 diacid])AQ[Aib]NFIEYLIEGGPSSGEPPPEGE-NH2 [Example 483]	1.17	0.188	0.0133	231	1.77	18.2	–	–	–	–	–	–
H-Y[Aib]QGT[αMePhe(2-F)]TSD[4Pal][αMeS]I[αMeL]LD[Orn]K([AEEA-γGlu-C18 diacid])AQ[Aib][Orn]FIEYLIEAGPSSGEPPPEEG-NH2 [Example 484]	1.59	0.201	0.0152	204	3.99	16	–	–	–	–	–	–
H-Y[Aib]QGT[αMePhe(2-F)]TSD[4Pal][αMeS]I[αMeL]LD[Orn]K([AEEA-γGlu-C18 diacid])AQ[Aib][Orn]FIEYLIEGGPSSGEPPPEEG-NH2 [Example 476]	1.29	0.164	0.0131	90.2	1.34	14.6	–	–	–	–	–	–
H-Y[Aib]QGT[αMePhe(2-F)]TSD[4Pal][αMeS]I[αMeL]LD[Orn]K([AEEA-γGlu-C18 diacid])AQ[Aib][Orn]FI[dE]YLIEGGPSSGEPPPSGTE-NH2 [Example 501]	2.32	0.401	0.0373	455	4.54	38	–	–	–	–	–	–
H-Y[Aib]QGT[αMePhe(2-F)]TSD[4Pal][αMeS]I[αMeL]LD[Orn]K([AEEA-γGlu-C18 diacid])AQ[Aib][Orn]FI[dE]YLIEGGPSSGEPPPSGTEE-NH2 [Example 533]	3.23	0.334	0.0388	453	5.02	30	–	–	–	–	–	–
H-Y[Aib]QGT[αMePhe(2-F)]TSD[4Pal][αMeS]I[αMeL]LD[Orn]K([AEEA-γGlu-C18 diacid])AQ[Aib][Orn]FI[dE][αMeY]LIEGGPSSGEPEPSEG-NH2 [Example 481]	1.19	0.204	0.0164	100	1.22	14.2	–	–	–	–	–	–
H-Y[Aib]QGT[αMePhe(2-F)]TSD[4Pal][αMeS]I[αMeL]LD[Orn]K([AEEA-γGlu-C18 diacid])AQ[Aib][Orn]FI[dE][αMeY]LIEGGPSSGEPPPEGE-NH2 [Example 698]	0.824	0.252	0.0112	124	1.53	20.6	–	–	–	–	–	–
H-Y[Aib]QGT[αMePhe(2-F)]TSD[4Pal][αMeS]I[αMeL]LD[Orn]K([AEEA-γGlu-C18 diacid])AQ[Aib][Orn]FI[dE][αMeY]LIEGGPSSGEPPPEGTGE-NH2 [Example 697]	0.607	0.235	0.0109	130	1.71	18.2	–	–	–	–	–	–
H-Y[Aib]QGT[αMePhe(2-F)]TSD[4Pal][αMeS]I[αMeL]LD[Orn]K([AEEA-γGlu-C18 diacid])AQ[αMe4Pal]EFI[dE][αMeY]LIEGGPPSGEPPPEGE-NH2 [Example 1191]	0.931	–	–	243	–	82.3	0.945	0.00992	3.06	–	–	–
H-Y[Aib]QGT[αMePhe(2-F)]TSD[4Pal][αMeS]I[αMeL]LD[Orn]K([AEEA-γGlu-C18 diacid])AQ[αMe4Pal]EFI[dE][αMeY]LIEGGPPS[Aib]EPPPSGGGE-NH2 [Example 1201]	1.02	–	–	234	–	93.9	0.888	0.00959	1.76	–	–	–
H-Y[Aib]QGT[αMePhe(2-F)]TSD[4Pal][αMeS]I[αMeL]LD[Orn]K([AEEA-γGlu-C18 diacid])AQ[αMe4Pal]EFI[dE][αMeY]LIEGGPPS[Aib]EPPPSGSE-NH2 [Example 1200]	0.896	–	–	278	–	91.4	0.727	0.00883	1.5	–	–	–
H-Y[Aib]QGT[αMePhe(2-F)]TSD[4Pal][αMeS]I[αMeL]LD[Orn]K([AEEA-γGlu-C18 diacid])AQ[αMe4Pal]EFI[dE][αMeY]LIEGGPPS[Aib][Orn]PPPEGE-NH2 [Example 1194]	0.759	–	–	215	–	57.4	0.51	0.00725	2.02	–	–	–
H-Y[Aib]QGT[αMePhe(2-F)]TSD[4Pal][αMeS]I[αMeL]LD[Orn]K([AEEA-γGlu-C18 diacid])AQ[αMe4Pal]EFI[dE][αMeY]LIEGGPPS[Aib][Orn]PPPSGGGE-NH2 [Example 1199]	0.733	–	–	352	–	63.9	0.5	0.0076	2.05	–	–	–
H-Y[Aib]QGT[αMePhe(2-F)]TSD[4Pal][αMeS]I[αMeL]LD[Orn]K([AEEA-γGlu-C18 diacid])AQ[αMe4Pal]EFI[dE][αMeY]LIEGGPPS[Aib][Orn]PPP[Orn]GE-NH2 [Example 1195]	0.637	–	–	242	–	44.2	0.367	0.00708	1.74	–	–	–
H-Y[Aib]QGT[αMePhe(2-F)]TSD[4Pal][αMeS]I[αMeL]LD[Orn]K([AEEA-γGlu-C18 diacid])AQ[αMe4Pal]EFI[dE][αMeY]LIEGGPPS[Aib][Orn]PPP[Orn]GGGE-NH2 [Example 1197]	0.639	–	–	288	–	46.1	0.407	0.00666	1.88	–	–	–
H-Y[Aib]QGT[αMePhe(2-F)]TSD[4Pal][αMeS]I[αMeL]LD[Orn]K([AEEA-γGlu-C18 diacid])AQ[αMe4Pal]EFI[dE][αMeY]LIEGGPPS[Aib][Orn]PPP[Orn]GS-NH2 [Example 1189]	0.584	–	–	248	–	45.4	–	–	–	0.292	0.00597	1.59
H-Y[Aib]QGT[αMePhe(2-F)]TSD[4Pal][αMeS]I[αMeL]LD[Orn]K([AEEA-γGlu-C18 diacid])AQ[αMe4Pal]EFI[dE][αMeY]LIEGGPSSGAPPPEGE-NH2 [Example 1148]	0.873	–	–	175	–	44.3	–	–	–	0.299	0.00801	1.6
H-Y[Aib]QGT[αMePhe(2-F)]TSD[4Pal][αMeS]I[αMeL]LD[Orn]K([AEEA-γGlu-C18 diacid])AQ[αMe4Pal]EFI[dE][αMeY]LIEGGPSSGAPPPEGGGE-NH2 [Example 759]	1.05	0.262	0.00676	223	1.29	34.8	–	–	–	–	–	–
H-Y[Aib]QGT[αMePhe(2-F)]TSD[4Pal][αMeS]I[αMeL]LD[Orn]K([AEEA-γGlu-C18 diacid])AQ[αMe4Pal]EFI[dE][αMeY]LIEGGPSSGAPPPEGGGEE-NH2 [Example 1216]	0.914	–	–	225	–	66.9	0.65	0.00921	1.83	–	–	–
